#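 Tested at 5 concentrations; 48 h exposure; 96-well plates; endpoints linearly interpolated, else capped at highest concentration. Abbreviation: GI50, concentration required for 50% inhibition of growth.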 Calls of active or inactive are those of the source. Rule as the data show it: active = GI50 up to about 1.1 µM and inactive = higher.
# How the values were obtained:
# Test in all cases: NCI tumour cell line growth inhibition, 48 h
# 786-0 = test system: 786-0
# A498 = test system: A498
# A549 = test system: A549
# ACHN = test system: ACHN
# BT-549 = test system: BT-549
# CAKI-1 = test system: CAKI-1
# CCRF-CEM = test system: CCRF-CEM
# COLO 205 = test system: COLO 205
# DU-145 = test system: DU-145
# EKVX = test system: EKVX
# HCC 2998 = test system: HCC 2998
# HCT-116 = test system: HCT-116
# HCT-15 = test system: HCT-15
# HL-60 = test system: HL-60
# HOP-62 = test system: HOP-62
# HOP-92 = test system: HOP-92
# HT-29 = test system: HT-29
# Hs-578T = test system: Hs-578T
# IGROV-1 = test system: IGROV-1
# K562 = test system: K562
# KM12 = test system: KM12
# LOX IMVI = test system: LOX IMVI
# M14 = test system: M14
# MCF7 = test system: MCF7
# MDA-MB-231 = test system: MDA-MB-231
# MDA-MB-435 = test system: MDA-MB-435
# MDA-N = test system: MDA-N
# MOLT-4 = test system: MOLT-4
# NCI-H226 = test system: NCI-H226
# NCI-H23 = test system: NCI-H23
# NCI-H460 = test system: NCI-H460
# NCI/ADR-RES = test system: NCI/ADR-RES
# OVCAR-3 = test system: OVCAR-3
# OVCAR-4 = test system: OVCAR-4
# OVCAR-5 = test system: OVCAR-5
# OVCAR-8 = test system: OVCAR-8
# PC-3 = test system: PC-3
# RPMI-8226 = test system: RPMI-8226
# RXF 393 = test system: RXF 393
# SF-268 = test system: SF-268
# SF-295 = test system: SF-295
# SF-539 = test system: SF-539
# SK-MEL-28 = test system: SK-MEL-28
# SK-MEL-2 = test system: SK-MEL-2
# SK-MEL-5 = test system: SK-MEL-5
# SK-OV-3 = test system: SK-OV-3
# SN12C = test system: SN12C
# SNB-19 = test system: SNB-19
# SNB-75 = test system: SNB-75
# SR = test system: SR
# SW-620 = test system: SW-620
# T47D = test system: T47D
# TK-10 = test system: TK-10
# U-251 = test system: U-251
# UACC-257 = test system: UACC-257
# UACC-62 = test system: UACC-62
# UO-31 = test system: UO-31
# Malme-3M = test system: Malme-3M
# NCI-H522 = test system: NCI-H522
compound,measurement,setting,value
c1ccc2c(c1)nc1n2CSCC1,GI50,786-0,> 100 µM (inactive)
same,GI50,A498,> 100 µM (inactive)
same,GI50,A549,> 100 µM (inactive)
same,GI50,ACHN,> 100 µM (inactive)
same,GI50,BT-549,> 100 µM (inactive)
same,GI50,CAKI-1,> 100 µM (inactive)
same,GI50,CCRF-CEM,> 100 µM (inactive)
same,GI50,COLO 205,> 100 µM (inactive)
same,GI50,DU-145,> 100 µM (inactive)
same,GI50,EKVX,> 100 µM (inactive)
same,GI50,HCC 2998,> 100 µM (inactive)
same,GI50,HCT-116,> 100 µM (inactive)
same,GI50,HCT-15,> 100 µM
same,GI50,HL-60,> 100 µM (inactive)
same,GI50,HOP-62,> 100 µM (inactive)
same,GI50,HOP-92,> 100 µM (inactive)
same,GI50,HT-29,> 100 µM (inactive)
same,GI50,Hs-578T,> 100 µM (inactive)
same,GI50,IGROV-1,> 100 µM (inactive)
same,GI50,K562,> 100 µM (inactive)
same,GI50,KM12,> 100 µM (inactive)
same,GI50,LOX IMVI,> 100 µM (inactive)
same,GI50,M14,> 100 µM (inactive)
same,GI50,MCF7,> 100 µM (inactive)
same,GI50,MDA-MB-231,> 100 µM (inactive)
same,GI50,MDA-MB-435,> 100 µM (inactive)
same,GI50,MDA-N,> 100 µM (inactive)
same,GI50,MOLT-4,> 100 µM (inactive)
same,GI50,NCI-H226,> 100 µM (inactive)
same,GI50,NCI-H23,> 100 µM (inactive)
same,GI50,NCI-H460,> 100 µM (inactive)
same,GI50,NCI/ADR-RES,> 100 µM (inactive)
same,GI50,OVCAR-3,> 100 µM (inactive)
same,GI50,OVCAR-4,> 100 µM (inactive)
same,GI50,OVCAR-5,> 100 µM (inactive)
same,GI50,OVCAR-8,> 100 µM (inactive)
same,GI50,PC-3,> 100 µM (inactive)
same,GI50,RPMI-8226,> 100 µM (inactive)
same,GI50,RXF 393,> 100 µM (inactive)
same,GI50,SF-268,> 100 µM (inactive)
same,GI50,SF-295,> 100 µM (inactive)
same,GI50,SF-539,> 100 µM (inactive)
same,GI50,SK-MEL-28,> 100 µM (inactive)
same,GI50,SK-MEL-2,> 100 µM (inactive)
same,GI50,SK-MEL-5,> 100 µM (inactive)
same,GI50,SK-OV-3,> 100 µM (inactive)
same,GI50,SN12C,> 100 µM (inactive)
same,GI50,SNB-19,> 100 µM (inactive)
same,GI50,SNB-75,> 100 µM (inactive)
same,GI50,SR,> 100 µM (inactive)
same,GI50,SW-620,> 100 µM (inactive)
same,GI50,T47D,> 100 µM (inactive)
same,GI50,TK-10,> 100 µM (inactive)
same,GI50,U-251,> 100 µM (inactive)
same,GI50,UACC-257,> 100 µM (inactive)
same,GI50,UACC-62,> 100 µM (inactive)
same,GI50,UO-31,> 100 µM (inactive)
O=S(=O)(c1ccc(I)cc1)N(c1ccccc1)S(=O)(=O)C(F)(F)C(F)(F)C(F)(F)C(F)(F)F,GI50,786-0,45.7 µM (inactive)
same,GI50,A549,31.5 µM (inactive)
same,GI50,ACHN,58.2 µM (inactive)
same,GI50,BT-549,> 100 µM (inactive)
same,GI50,CAKI-1,34.1 µM (inactive)
same,GI50,CCRF-CEM,40.9 µM (inactive)
same,GI50,COLO 205,40 µM (inactive)
same,GI50,DU-145,46.7 µM (inactive)
same,GI50,EKVX,40.8 µM (inactive)
same,GI50,HCT-116,19.9 µM (inactive)
same,GI50,HCT-15,41.2 µM
same,GI50,HL-60,97.7 µM (inactive)
same,GI50,HOP-62,24.3 µM (inactive)
same,GI50,HOP-92,15.4 µM (inactive)
same,GI50,HT-29,22.4 µM (inactive)
same,GI50,Hs-578T,30.2 µM (inactive)
same,GI50,IGROV-1,> 100 µM (inactive)
same,GI50,K562,41.6 µM (inactive)
same,GI50,KM12,18.8 µM (inactive)
same,GI50,LOX IMVI,96.2 µM (inactive)
same,GI50,M14,34.8 µM (inactive)
same,GI50,MCF7,26.9 µM (inactive)
same,GI50,MDA-MB-231,23 µM (inactive)
same,GI50,MDA-MB-435,> 100 µM (inactive)
same,GI50,MDA-N,60.1 µM (inactive)
same,GI50,MOLT-4,39.4 µM (inactive)
same,GI50,Malme-3M,18.6 µM (inactive)
same,GI50,NCI-H226,22.9 µM (inactive)
same,GI50,NCI-H23,43.2 µM (inactive)
same,GI50,NCI-H460,31.9 µM (inactive)
same,GI50,NCI-H522,28.2 µM (inactive)
same,GI50,NCI/ADR-RES,43.3 µM (inactive)
same,GI50,OVCAR-3,22.6 µM (inactive)
same,GI50,OVCAR-4,24.5 µM (inactive)
same,GI50,OVCAR-5,24.9 µM (inactive)
same,GI50,OVCAR-8,48 µM (inactive)
same,GI50,PC-3,38.7 µM (inactive)
same,GI50,RPMI-8226,42.7 µM (inactive)
same,GI50,RXF 393,24.8 µM (inactive)
same,GI50,SF-295,24 µM (inactive)
same,GI50,SF-539,35.6 µM (inactive)
same,GI50,SK-MEL-28,40.6 µM (inactive)
same,GI50,SK-MEL-2,29.2 µM (inactive)
same,GI50,SK-OV-3,26.4 µM (inactive)
same,GI50,SN12C,> 100 µM (inactive)
same,GI50,SNB-19,74.3 µM (inactive)
same,GI50,SR,56.5 µM (inactive)
same,GI50,SW-620,34.7 µM (inactive)
same,GI50,T47D,35.5 µM (inactive)
same,GI50,TK-10,14.2 µM (inactive)
same,GI50,U-251,75.2 µM (inactive)
same,GI50,UACC-257,> 100 µM (inactive)
same,GI50,UACC-62,25.5 µM (inactive)
same,GI50,UO-31,55.8 µM (inactive)
CC(=O)N1C(Nc2nccs2)CCN1c1ccccc1 (stereo not drawn),GI50,786-0,> 10 µM (inactive)
same,GI50,A549,> 10 µM (inactive)
same,GI50,ACHN,> 10 µM (inactive)
same,GI50,BT-549,> 10 µM (inactive)
same,GI50,CAKI-1,> 10 µM (inactive)
same,GI50,CCRF-CEM,> 10 µM (inactive)
same,GI50,COLO 205,> 10 µM (inactive)
same,GI50,DU-145,> 10 µM (inactive)
same,GI50,EKVX,> 10 µM (inactive)
same,GI50,HCC 2998,> 10 µM (inactive)
same,GI50,HCT-116,> 10 µM (inactive)
same,GI50,HCT-15,> 10 µM
same,GI50,HL-60,> 10 µM (inactive)
same,GI50,HOP-62,> 10 µM (inactive)
same,GI50,HOP-92,> 10 µM (inactive)
same,GI50,HT-29,> 10 µM (inactive)
same,GI50,Hs-578T,> 10 µM (inactive)
same,GI50,IGROV-1,> 10 µM (inactive)
same,GI50,K562,> 10 µM (inactive)
same,GI50,LOX IMVI,> 10 µM (inactive)
same,GI50,M14,> 10 µM (inactive)
same,GI50,MCF7,> 10 µM (inactive)
same,GI50,MDA-MB-231,> 10 µM (inactive)
same,GI50,MDA-MB-435,> 10 µM (inactive)
same,GI50,MDA-N,> 10 µM (inactive)
same,GI50,MOLT-4,> 10 µM (inactive)
same,GI50,Malme-3M,> 10 µM (inactive)
same,GI50,NCI-H226,> 10 µM (inactive)
same,GI50,NCI-H23,> 10 µM (inactive)
same,GI50,NCI-H460,> 10 µM (inactive)
same,GI50,NCI/ADR-RES,> 10 µM (inactive)
same,GI50,OVCAR-3,> 10 µM (inactive)
same,GI50,OVCAR-4,> 10 µM (inactive)
same,GI50,OVCAR-5,> 10 µM (inactive)
same,GI50,OVCAR-8,> 10 µM (inactive)
same,GI50,PC-3,> 10 µM (inactive)
same,GI50,RPMI-8226,> 10 µM (inactive)
same,GI50,RXF 393,> 10 µM (inactive)
same,GI50,SF-268,> 10 µM (inactive)
same,GI50,SF-295,> 10 µM (inactive)
same,GI50,SF-539,> 10 µM (inactive)
same,GI50,SK-MEL-28,> 10 µM (inactive)
same,GI50,SK-MEL-2,> 10 µM (inactive)
same,GI50,SK-MEL-5,> 10 µM (inactive)
same,GI50,SN12C,> 10 µM (inactive)
same,GI50,SNB-19,> 10 µM (inactive)
same,GI50,SNB-75,> 10 µM (inactive)
same,GI50,SR,> 10 µM (inactive)
same,GI50,SW-620,> 10 µM (inactive)
same,GI50,T47D,> 10 µM (inactive)
same,GI50,TK-10,> 10 µM (inactive)
same,GI50,UACC-257,> 10 µM (inactive)

# Source: ChEMBL document CHEMBL1201862, “PubChem BioAssay data set” (2004)
